Assay [1] deals with T1, isolated recombinant JAK2 kinase domain (Homo sapiens, UniProt O60674).
T1 construct: The activity of the isolated recombinant JAK1 and JAK2 kinase domain was measured
Briefly: JAK2 enzyme assay (Caliper LabChip, Ki). Type of assay: biochemical. Particulars: 25 μM ATP. The method, boiled down:
(§1)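 Phosphorylation of a fluorescent JAK3-derived dodecapeptide by recombinant human JAK1 or JAK2 catalytic domain is monitored through electrophoretic product/substrate separation. Incubation lasts 30 minutes at 22° C; EDTA quench. Morrison-model Ki values account for ATP competition.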

The subject of assay [2] is JAK1-dependent STAT6 phosphorylation downstream of IL-13 stimulation in BEAS-2B human bronchial epithelial cells. Briefly: JAK1 pathway assay in BEAS-2B cells (IL-13 stimulated STAT6 phosphorylation, MSD). Particulars: read-out: P-STAT6 BEAS2B + IL13 IC50. Type of assay: cell-based. The method, boiled down:
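BEAS-2B human bronchial epithelial cells, plated the day before in complete growth medium, were preincubated with compound for 1 hr at 37° C (0.2% DMSO final), then stimulated with IL-13 at its EC90 for 15 min. STAT6 phosphorylation in lysates was read by MSD; EC50 was taken as 50% inhibition versus DMSO control.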

Assay [3] deals with T2, isolated recombinant JAK1 kinase domain (Homo sapiens, UniProt P23458).
T2 construct: The activity of the isolated recombinant JAK1 and JAK2 kinase domain was measured
Briefly: JAK1 enzyme assay (Caliper LabChip, Ki). Type of assay: biochemical. Particulars: recombinant JAK1 kinase domain, 25 μM ATP. The method in brief:
as §1

Each structure is given as a SMILES string.

T1 sequence (O60674 849-1124 limits assumed): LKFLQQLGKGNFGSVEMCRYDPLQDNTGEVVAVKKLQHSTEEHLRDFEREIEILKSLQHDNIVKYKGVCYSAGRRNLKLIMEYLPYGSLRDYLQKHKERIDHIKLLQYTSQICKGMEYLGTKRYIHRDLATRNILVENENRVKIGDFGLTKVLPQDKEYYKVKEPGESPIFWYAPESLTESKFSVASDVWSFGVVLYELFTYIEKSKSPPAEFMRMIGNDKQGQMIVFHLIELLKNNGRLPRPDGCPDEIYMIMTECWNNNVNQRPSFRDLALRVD
T2 sequence (P23458 875-1153 limits assumed): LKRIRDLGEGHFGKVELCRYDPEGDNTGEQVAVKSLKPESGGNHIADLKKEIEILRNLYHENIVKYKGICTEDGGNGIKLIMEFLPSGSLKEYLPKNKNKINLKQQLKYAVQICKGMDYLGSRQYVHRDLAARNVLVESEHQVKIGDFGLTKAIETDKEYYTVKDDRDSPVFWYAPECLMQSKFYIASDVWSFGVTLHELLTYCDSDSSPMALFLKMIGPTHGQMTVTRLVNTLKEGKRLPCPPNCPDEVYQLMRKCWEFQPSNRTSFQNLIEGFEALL

By Ki is commonly meant the equilibrium dissociation constant of an inhibitor or competing ligand from its target. In general, IC50 refers to the concentration at which inhibition is half-maximal. For `CSc1ccc(OC(F)F)c(-c2nn(CC(=O)N3CCN(CC4CCOCC4)CC3)cc2NC(=O)c2cnn3cccnc23)c1` [Example 65, N-[3-[2-(difluoromethoxy)-5-methylsulfanyl-phenyl]-1-[2-oxo-2-[4-(tetrahydropyran-4-ylmethyl)piperazin-1-yl]ethyl]pyrazol-4-yl]pyrazolo[1,5-a]pyrimidine-3-carboxamide], the Ki was 0.49 nM in assay [1] and 0.41 nM in assay [3]. Besides, the IC50 in assay [2] worked out at 15 nM.
`CSc1ccc(OC(F)F)c(-c2nn(CC(=O)N3CCN(C4CCSCC4)CC3)cc2NC(=O)c2cnn3cccnc23)c1` [Example 66, N-[3-[2-(difluoromethoxy)-5-methylsulfanyl-phenyl]-1-[2-oxo-2-(4-tetrahydrothiopyran-4-ylpiperazin-1-yl)ethyl]pyrazol-4-yl]pyrazolo[1,5-a]pyrimidine-3-carboxamide]: the Ki in assay [1] turned out to be 0.24 nM; in assay [3], 0.2 nM. In addition, the 50% inhibitory concentration (IC50) in assay [2] was determined as 5 nM.
For `CSc1ccc(OC(F)F)c(-c2nn(CC(=O)N3CC=CCC3)cc2NC(=O)c2cnn3cccnc23)c1` [Example 67, N-[3-[2-(difluoromethoxy)-5-methylsulfanyl-phenyl]-1-[2-(3,6-dihydro-2H-pyridin-1-yl)-2-oxo-ethyl]pyrazol-4-yl]pyrazolo[1,5-a]pyrimidine-3-carboxamide], in that order: 0.27 nM, 0.19 nM and 8.9 nM.
For `CSc1ccc(OC(F)F)c(-c2nn(CC(=O)N3CCC(N(C)CCC(=O)N4CCC4)CC3)cc2NC(=O)c2cnn3cccnc23)c1` [Example 68, N-[1-[2-[4-[[3-(azetidin-1-yl)-3-oxo-propyl]-methyl-amino]-1-piperidyl]-2-oxo-ethyl]-3-[2-(difluoromethoxy)-5-methylsulfanyl-phenyl]pyrazol-4-yl]pyrazolo[1,5-a]pyrimidine-3-carboxamide], the figures for the Ki in assay [1] and in assay [3] were 0.85 nM and 0.47 nM, respectively. In addition, in assay [2], the IC50 was 300 nM.
Consider `CSc1ccc(OC(F)F)c(-c2nn(CC(=O)N3CCC(N4CCN(C5COC5)CC4)CC3)cc2NC(=O)c2cnn3cccnc23)c1` [Example 69, N-[3-[2-(difluoromethoxy)-5-methylsulfanyl-phenyl]-1-[2-[4-[4-(oxetan-3-yl)piperazin-1-yl]-1-piperidyl]-2-oxo-ethyl]pyrazol-4-yl]pyrazolo[1,5-a]pyrimidine-3-carboxamide], for which the Ki was 0.71 nM in assay [1] and 0.35 nM in assay [3]. Moreover, the IC50 in assay [2] stood at 50 nM.
For `CSc1ccc(OC(F)F)c(-c2nn(CC(=O)N3CCC(N4CCN(C5CCOCC5)CC4)CC3)cc2NC(=O)c2cnn3cccnc23)c1` [Example 70, N-[3-[2-(difluoromethoxy)-5-methylsulfanyl-phenyl]-1-[2-oxo-2-[4-(4-tetrahydropyran-4-ylpiperazin-1-yl)-1-piperidyl]ethyl]pyrazol-4-yl]pyrazolo[1,5-a]pyrimidine-3-carboxamide], the Ki in assay [1] was 0.82 nM; in assay [3] it was 0.42 nM. Also, the IC50 in assay [2] turned out to be 38 nM.
Turning to `CSc1ccc(OC(F)F)c(-c2nn(CC(=O)N3CCC(OCC(=O)N4CCN(C)CC4)CC3)cc2NC(=O)c2cnn3cccnc23)c1` [Example 71, N-(3-(2-(difluoromethoxy)-5-(methylthio)phenyl)-1-(2-(4-(2-(4-methylpiperazin-1-yl)-2-oxoethoxy)piperidin-1-yl)-2-oxoethyl)-1H-pyrazol-4-yl)pyrazolo[1,5-a]pyrimidine-3-carboxamide], the results for the Ki in assay [1] and in assay [3] were 1.1 nM and 0.59 nM, respectively. Besides, the IC50 in assay [2] came out at 83 nM.
Turning to `CSc1ccc(OC(F)F)c(-c2nn(CC(=O)N3CCC(N4CCn5cncc5C4)CC3)cc2NC(=O)c2cnn3cccnc23)c1` [Example 72, N-[3-[2-(difluoromethoxy)-5-methylsulfanyl-phenyl]-1-[2-[4-(6,8-dihydro-5H-imidazo[1,5-a]pyrazin-7-yl)-1-piperidyl]-2-oxo-ethyl]pyrazol-4-yl]pyrazolo[1,5-a]pyrimidine-3-carboxamide], the Ki in assay [1] was 0.36 nM; in assay [3], 0.4 nM. In assay [2], the IC50 amounted to 110 nM.
For `CSc1ccc(OC(F)F)c(-c2nn(CC(=O)N3CCC(N4CCn5ccnc5C4)CC3)cc2NC(=O)c2cnn3cccnc23)c1` [Example 73, N-[3-[2-(difluoromethoxy)-5-methylsulfanyl-phenyl]-1-[2-[4-(6,8-dihydro-5H-imidazo[1,2-a]pyrazin-7-yl)-1-piperidyl]-2-oxo-ethyl]pyrazol-4-yl]pyrazolo[1,5-a]pyrimidine-3-carboxamide], the Ki was 0.25 nM in assay [1] and 0.23 nM in assay [3]. Further, the IC50 in assay [2] came to 39 nM.
For the compound `CSc1ccc(OC(F)F)c(-c2nn(CC(=O)N3CCC(CN4CCN(C(=O)CN(C)C)CC4)CC3)cc2NC(=O)c2cnn3cccnc23)c1` [Example 74, N-[3-[2-(difluoromethoxy)-5-methylsulfanyl-phenyl]-1-[2-[4-[[4-[2-(dimethylamino)acetyl]piperazin-1-yl]methyl]-1-piperidyl]-2-oxo-ethyl]pyrazol-4-yl]pyrazolo[1,5-a]pyrimidine-3-carboxamide], the results for the Ki in assay [1] and in assay [3] were 0.58 nM and 0.3 nM, respectively. Further, the IC50 in assay [2] was 50 nM.
For `CSc1ccc(OC(F)F)c(-c2nn(CC(=O)N3CCC(N4CC5CC(C4)O5)CC3)cc2NC(=O)c2cnn3cccnc23)c1` [Example 75, N-[3-[2-(difluoromethoxy)-5-methylsulfanyl-phenyl]-1-[2-[4-(6-oxa-3-azabicyclo[3.1.1]heptan-3-yl)-1-piperidyl]-2-oxo-ethyl]pyrazol-4-yl]pyrazolo[1,5-a]pyrimidine-3-carboxamide], in that order: 0.38 nM, 0.28 nM and 12 nM.
For `CSc1ccc(OC(F)F)c(-c2nn(C3(CC#N)CN(C)C3)cc2NC(=O)c2cnn3cccnc23)c1` [Example 76, N-(1-(3-(cyanomethyl)-1-methylazetidin-3-yl)-3-(2-(difluoromethoxy)-5-(methylthio)phenyl)-1H-pyrazol-4-yl)pyrazolo[1,5-a]pyrimidine-3-carboxamide], in that order: 1 nM, 1.4 nM and 60 nM.
As for `CSc1ccc(OC(F)F)c(-c2nn(C3(CC#N)CNC3)cc2NC(=O)c2cnn3cccnc23)c1` [Example 77, N-(1-(3-(cyanomethyl)azetidin-3-yl)-3-(2-(difluoromethoxy)-5-(methylthio)phenyl)-1H-pyrazol-4-yl)pyrazolo[1,5-a]pyrimidine-3-carboxamide], the Ki was 0.33 nM in assay [1] and 0.47 nM in assay [3]. Further, the IC50 in assay [2] was found to be 27 nM.
With `CSc1ccc(OC(F)F)c(-c2nn(C3(CC#N)CN(C(=O)OC(C)(C)C)C3)cc2NC(=O)c2cnn3cccnc23)c1` [Example 78, tert-butyl 3-(cyanomethyl)-3-[3-[2-(difluoromethoxy)-5-methylsulfanyl-phenyl]-4-(pyrazolo[1,5-a]pyrimidine-3-carbonylamino)pyrazol-1-yl]azetidine-1-carboxylate], the results for the Ki in assay [1] and in assay [3] were 0.72 nM and 0.92 nM, respectively. Also, the IC50 in assay [2] is 69 nM.
For `CSc1ccc(OC(F)F)c(-c2nn(CC(=O)N3CCC(N4CCn5nccc5C4)CC3)cc2NC(=O)c2cnn3cccnc23)c1` [Example 79, N-[3-[2-(difluoromethoxy)-5-methylsulfanyl-phenyl]-1-[2-[4-(6,7-dihydro-4H-pyrazolo[1,5-a]pyrazin-5-yl)-1-piperidyl]-2-oxo-ethyl]pyrazol-4-yl]pyrazolo[1,5-a]pyrimidine-3-carboxamide], in that order: 0.44 nM, 0.39 nM and 35 nM.
Regarding `CSc1ccc(OC(F)F)c(-c2nn(CC(=O)N3CCC(CN4CCN(C(C)=O)CC4)CC3)cc2NC(=O)c2cnn3cccnc23)c1` [Example 80, N-[1-[2-[4-[(4-acetylpiperazin-1-yl)methyl]-1-piperidyl]-2-oxo-ethy]-3-[2-(difluoromethoxy)-5-methylsulfanyl-phenyl]pyrazol-4-yl]pyrazolo[1,5-a]pyrimidine-3-carboxamide], the Ki came out at 0.43 nM in assay [1] and 0.26 nM in assay [3]. Moreover, the IC50 in assay [2] is 16 nM.
On to `CSc1ccc(OC(F)F)c(-c2nn(Cc3cn(C4CCN(C5CCOCC5)CC4)nn3)cc2NC(=O)c2cnn3cccnc23)c1` [Example 81, N-(3-(2-(difluoromethoxy)-5-(methylthio)phenyl)-1-((1-(1-(tetrahydro-2H-pyran-4-yl)piperidin-4-yl)-1H-1,2,3-triazol-4-yl)methyl)-1H-pyrazol-4-yl)pyrazolo[1,5-a]pyrimidine-3-carboxamide], for which the Ki worked out at 0.23 nM in assay [1] and 0.35 nM in assay [3]. In assay [2], the IC50 came out at 8.1 nM.
Take `COCC(=O)N1CCN(CC2CCN(C(=O)Cn3cc(NC(=O)c4cnn5cccnc45)c(-c4cc(SC)ccc4OC(F)F)n3)CC2)CC1` [Example 82, N-[3-[2-(difluoromethoxy)-5-methylsulfanyl-phenyl]-1-[2-[4-[[4-(2-methoxyacetyl)piperazin-1-yl]methyl]-1-piperidyl]-2-oxo-ethyl]pyrazol-4-yl]pyrazolo[1,5-a]pyrimidine-3-carboxamide]: the Ki in assay [1] turned out to be 0.41 nM; in assay [3] it was 0.29 nM. Further, in assay [2], the IC50 was determined as 34 nM.

Source of the values: patent US20180265515A1 (Genentech, Inc., priority 2015, published 2018).
